Test results as given in patent publication US20240197760A1, “ACTIVATORS OF INTEGRATED STRESS RESPONSE PATHWAY FOR PROTECTION AGAINST FERROPTOSIS” (Burke Neurological Institute, priority 2021, published 2024).
Entries after “also recorded” stand apart in the source; their conditions may differ.

How the values were obtained:
rats = conditions: dietary supplementation in rats; cited from earlier work
MCAO mice = assay: Filament MCAO model of transient ischemic stroke, sensory and motor function; format: in vivo, mouse; conditions: 10 mg/Kg i.p. from 24 h after MCAO, every day for 4 weeks
Method: To assess the effect of 2-DG on the Bdnf gene expression, mice were injected with either saline or 2-DG (10 mg/Kg) intraperitoneally for 6 h and then mice were euthanized properly, and hippocampi were dissected out from mice brain. In order to assess functional improvement with 2-DG treatment after ischemic stroke, mice were injected with 2-DG (10 mg/Kg) intraperitoneally 24 h after induction of the stroke and then every day for four weeks. For assessing functional improvement with 2-DG treatment after hemorrhagic stroke, mice were injected with 2-DG (10 mg/Kg) intraperitoneally 24 h after induction of the stroke and then every day for three weeks. The ischemic stroke was induced using filament MCAO method as described before (Alim et al., 2019). In brief, all surgeries were conducted in sterile conditions. Male mice were anesthetized with isoflurane (5% induction, and 2% maintenance). A 2 cm incision was opened in the middle of the anterior neck. The right common carotid was temporarily ligated with 6-0 silk (Ethicon Inc.). Right unilateral MCAO was accomplished by inserting a Silicon rubber-coated monofilament (Doccol Corporation) into the internal carotid artery via the external carotid artery stump. Adequacy of MCAO was confirmed by monitoring cortical blood flow at the onset of the occlusion with a laser Doppler flowmetry probe affixed to the skull (Periflux System 5010; Perimed, Sweden). Animals were excluded if mean intra-ischemic laser Doppler flowmetry was >30% pre-ischemic baseline. […] The integrated sensorimotor function in both stimulation of vibrissae (sensory neglect) and rearing (motor response) was assessed through the corner turn test as described previously (Karuppagounder et al., 2016). […] The direction (left or right) in which the mouse turned around was recorded for each trial. […] The time from which the tape was applied to when the mouse successfully removed it was recorded for each paw. […] The latency to reach the ground were recorded. […]

Bdnf = Bdnf gene expression in mouse brain cortex after intraperitoneal injection; format: in vivo
mouse primary neurons = assay: Live-dead cell viability assay (calcein-AM / ethidium homodimer); format: cell-based; conditions: 1 mM to 15 mM, 24 h, cultured mouse primary neurons
hippocampal slices = assay: Long term potentiation (fEPSP) in submerged hippocampal slices; parameters: species or system mouse; conditions: 10 mM for 6 h in ACSF
Source text: Brains were quickly removed from mice sacrificed by cervical dislocation and placed in cold artificial cerebrospinal fluid (ACSF) (bubbled with 95% O2/5% CO2) containing (in mM): 124 NaCl, 4 KCl, 1 Na2HPO4, 25 NaHCO3, 2 CaCl2, 2 MgCl2, and 10 glucose. The pH and osmolarity of the solution were 7.4 and 310 mOsm/L, respectively. The hippocampus was isolated and placed on a mechanical tissue chopper to produce transverse hippocampal slices of 400 μm thickness. […] Hippocampal slices were allowed to recover for at least 90 min prior to beginning the experiment. For recordings, glass electrodes were filled with ACSF and positioned in the CA1 stratum radiatum to record fEPSPs evoked by local stimulation (0.1 ms) of Schaffer collateral fibers using a bipolar concentric electrode placed laterally to the recording electrode (˜150 μm). For LTP recordings, the voltage intensity of the stimulation test pulse (square pulse, 100 us duration) for each slice was determined to be the voltage intensity that had generated 30-40% of the maximum slope obtained using input-output relationships. Facilitation was calculated as the ratio of the slopes of the second and first fEPSPs, and plotted as a function of the inter-pulse duration. For LTP, a test pulse was applied every minute. […] Residual potentiation was calculated as the average of the last 15 min of 2 h of recordings.

[1] = vs saline significant on days 21 and 28

SMILES: OC[C@H]1OC(O)C[C@@H](O)[C@@H]1O (stereo partly drawn) [2-DG, (4R,5S,6R)-6-(hydroxymethyl)oxane-2,4,5-triol]
- physiological effects (insulin level, body temperature, blood pressure, heart rate, plasma glucose level, stress adaptation) (rats): mimic the physiological effects of calorie restriction
- pole test after ischemic stroke (MCAO mice; vs saline significant on day 21): significant improvement; also recorded: significant difference
- corner test after ischemic stroke (MCAO mice; [1]): significant improvement; also recorded: significant difference
- tape removal test after ischemic stroke (MCAO mice; [1]): significant improvement; also recorded: significant difference
- Bdnf gene expression in mouse brain cortex (Bdnf; 10 mg/Kg intraperitoneal injection for 6 h): significant increase
- driving the adaptive plasticity program (Bdnf; intraperitoneal injection at 10 mg/Kg): sufficient in driving the adaptive plasticity program
- toxicity / neuronal cell death in live-dead assay (mouse primary neurons): no toxicity
- LTP in submerged hippocampal slices (hippocampal slices): significant increase
